Molecular target: T1, SMN-RNAP II (GFP-POLR2D) interaction (Homo sapiens, UniProt Q16637)
T1 construct: endogenous in cells; host or cells: HEK293
Experiment: Coimmunoprecipitation of SMN with GFP-POLR2D in HEK293 cells
Assay type: cell-based
Settings: series of concentrations, 72 h
Procedure: HEK293 cells (ATCC, CRL-1573) were grown in DMEM (SLRI media facility) plus 10% FBS (Sigma, F1051). For analysis of SMN chemical antagonists, HEK293 cells were treated with DMSO or a series of concentrations (0, 2, 6, 10, 20, 30, 40, and 80 μM) of compound 1, compound 2 or negative compound 15 for 72 h. CRISPR-mediated SMN1 gene knockout was performed according to our previous study. Briefly, 2 μg of CRISPR/Cas9 plasmid (pCMV-Cas9-GFP), which expresses scrambled guide RNA, or guide RNA that targets the SMN1 gene exon1 (gRNA target sequence: […]) or exon3 (gRNA target sequence: […]) was transfected into HEK293 cells. Cells were sorted by BD FACSAria flow cytometry at Donnelly Center, University of Toronto 24 h after transfection, and single GFP-positive cells were seeded into a 48-well plate. The expression levels of SMN in each clone were detected by immunofluorescence. The transfection of GFP-RNase H1 R-loop-binding domain (GFP-HB) for R-loop detection into HEK293 cells was performed with the FuGENE Transfection reagent (Roche, E269A).
The experiments were performed following procedure as previously described with minor modifications. […]

T1 sequence (Q16637 2-294 limits assumed): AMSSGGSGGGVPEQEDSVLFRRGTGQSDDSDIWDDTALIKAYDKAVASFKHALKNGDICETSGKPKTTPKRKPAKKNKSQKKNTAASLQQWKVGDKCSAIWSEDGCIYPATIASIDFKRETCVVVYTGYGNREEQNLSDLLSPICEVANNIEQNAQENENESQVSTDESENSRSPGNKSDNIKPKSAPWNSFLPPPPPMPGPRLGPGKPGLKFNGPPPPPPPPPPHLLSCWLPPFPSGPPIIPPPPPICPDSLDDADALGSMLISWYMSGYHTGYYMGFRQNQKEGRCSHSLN

| SMILES | coimmunoprecipitation of SMN with GFP fusion protein of POLR2D |
| --- | --- |
| Cn1c2c(c(=N)c3c1CCC3)CCC2 [Compound 1, 4-methyl-2,3,4,5,6,7-hexahydrodicyclopenta[b,e]pyridin-8(1H)-imine] | inhibited |
| CCCn1c2c(c(=N)c3c1CCC3)CCC2 [Compound 2, 4-propyl-2,3,4,5,6,7-hexahydrodicyclopenta[b,e]pyridin-8(1H)-imine] | inhibited |

From PMC9481570, “A small molecule antagonist of SMN disrupts the interaction between SMN and RNAP II” (Nature Communications, 2022)
